Data: patent US5780441A, “Sphingoglycolipid compounds and therapeutic uses thereof” (Kirin Beer Kabushiki Kaisha, priority 1993, dated 1998)

Key:
[1] = test system: P388 mouse leukemia cells; assay: Life-span-prolonging (anti-tumor) effect on mice subcutaneously inoculated with P388 mouse leukemia cells; type: in vivo, mouse (CDF1 female); details: for Survival days ave. ± s. d. / response vs control in vivo at 0.1 mg/kg: 0.1 mg/kg i.v. on days 1, 5 and 9; for Survival days ave. ± s. d.: all marked ** (p < 0.01); for response vs control in vivo at 0.1 mg/kg: Mus musculus, P388, iv, survival vs vehicle, read-out: T/C (%)
Procedure: i) Anti-tumor effect of the compound of the present invention on mice subcutaneously inoculated with P388 mouse leukemia cells.
Experiment was performed with CDF1 female mice (6 weeks) purchased from NIPPON SLC K.K., which were divided into groups consisting of 5 animals. […]. In this connection, lentinan and picibanil were administered intravenously on days 1, 3, 5, 7 and 9 after implantation, and sizofilan was administered subcutaneously on days 1 through 9. Statistical analysis was performed according to the Mann-Whiteney test.

mouse bone marrow cells = assay: In vitro mouse bone marrow cell-proliferation-promoting effect (3H-TdR uptake); type: cell-based, mouse (BDF1 female); details: Mus musculus, Bone marrow cell, 96 h, 4 days, read-out: Uptake of 3H-TdR (% of control), bone marrow cells; for activity at 0.1 µg/mL: 10^-1 μg/ml; for activity at 0.01 µg/mL: 10^-2 μg/ml
Procedure: In vitro mouse bone marrow cell-proliferation-promoting effect of the present compound
Experiment was performed with BDF1 female mice (6 weeks old) purchased from NIPPON SLC K.K. Bone marrow cells were removed from the femoral bone of mice by the conventional manner, floated on 10% FCS RPMI 1640, layered over Lympholite M, and centrifuged to give a monocyte fraction. 1×10^6 cells/ml of the monocyte fraction was suspended in 10% FCS RPMI 1640. The cell suspension (100 μl/well) and a vehicle or sample (10 μl/well) which was prepared so as to have a final level shown in Table 2 were added into a wells of round-bottomed 96 well plate, and cultured under the condition of 5% CO2 at 37° C. for 4 days. 0.5 μCi/well of ^3 H-thymidine (^3 H-TdR) was added. After 6 hours, the cells were harvested, and the amount of ^3 H-TdR uptaken into nucleus was measured by a liquid scintillation counter. The ratio of the uptake of ^3 H-TdR in the sample group to that in the vehicle group was calculated and used as the activation rate for promoting in vitro mouse bone marrow cell growth.

mouse splenic lymphocyte = assay: In vitro mouse splenic lymphocyte-proliferation-stimulating effect (3H-TdR uptake); type: cell-based, mouse (BDF1 female); details: Mus musculus, Splenic lymphocyte, 48 h, 2 days, read-out: Uptake of 3H-TdR (% of control), splenic lymphocytes; for activity at 1 µg/mL: 10^0 μg/ml; for activity at 0.1 µg/mL: 10^-1 μg/ml; for activity at 0.01 µg/mL: 10^-2 μg/ml; for activity at 0.001 µg/mL: 10^-3 μg/ml
Procedure: i) In vitro mouse splenic lymphocyte growth promoting effects of the present compounds
Experiment was performed with BDF1 female mice (6 weeks old) purchased from NIPPON SLC K.K. Spleens were removed from mice, and spleen cells were brayed with slide glasses and hemolized with NH4 Cl. 2×10^6cells/ml of the spleen cells which had been hemolized were suspended in 10% FCS RPMI 1640. The cell suspension (100 μl/well) and a vehicle or sample (10 μl/well) which was prepared so as to have a final level shown in Table 3 were added into wells of a round-bottomed 96 well plate, and cultured under the condition of 5% CO2 at 37° C. for 2 days. 0.5 μCi/well of ^3 H-thymidine (^3 H-TdR) was added. After 6 hours, the cells were harvested, and the amount of ^3 H-TdR uptaken into nucleus was measured by a liquid scintillation counter. The ratio (%) of the uptake of ^3 H-TdR in the sample group to that in the vehicle group was calculated and used as the in vitro mouse splenic lymphocyte-proliferation-stimulating rate.

[2] = test system: mixed lymphocyte culture reaction (spleen cells of C57BL/6 and BALB/C mice); assay: Mixed lymphocyte culture reaction (MLR); type: cell-based, mouse (C57BL/6 stimulator, BALB/C responder); details: Mus musculus, Lymphocyte, 42 hours, read-out: MLR activating rate (%); for activity at 1 µg/mL: 1 × 10^0 μg/ml; for activity at 0.1 µg/mL: 1 × 10^-1 μg/ml
Procedure: ii) Mixed lymphocyte culture reaction (MLR) of the compounds of the present invention
Spleen cells were prepared from C57BL/6 mice and treated with 50 μg/ml of mitomycin C for 30 minutes. The treated cells were used as stimulator cells, and the spleen cells of BALB/C mice as responder cells. 2×10^6 cells/ml of the both spleen cells were suspended in 10% FCS RPMI1640 as a culture medium. The above-described cells (50 μl/well) and a sample (10 μl/well) were added into wells of a round-bottomed 96 well plate, and cultured under the condition of 5% CO2 at 37° C. for 42 hours. 0.5 μCi/well of ^3 H-thymidine (^3 H-TdR) was added. After 8 hours, the cells were harvested, and the amount of uptaken ^3 H-TdR was measured by a liquid scintillation counter to calculate the ratio (%) of the uptake of ^3 H-TdR in the sample group to that in the vehicle group as the MLR activating rate.

SMILES	Survival days ave. ± s. d. [1]	response vs control in vivo at 0.1 mg/kg [1]	life-span-prolonging effect (anti-tumor effect), in words ([1]; P388 s.c. system)	activity at 0.1 µg/mL (mouse bone marrow cells)	activity at 0.01 µg/mL (mouse bone marrow cells)	activity at 1 µg/mL (mouse splenic lymphocyte)	activity at 0.1 µg/mL (mouse splenic lymphocyte)	activity at 0.01 µg/mL (mouse splenic lymphocyte)	activity at 0.001 µg/mL (mouse splenic lymphocyte)	activity at 1 µg/mL [2]	activity at 0.1 µg/mL [2]
CCCCCCCCCCCCCCCCCCCCCCCCCC(=O)N[C@@H](CO[C@H]1O[C@H](CO)[C@@H](O[C@H]2O[C@H](CO)[C@@H](O)[C@H](O)[C@H]2O)[C@H](O)[C@H]1O)[C@H](O)[C@H](O)CCCCCCCCCCCCCC [Compound 35, O-α-D-glucopyranosyl-(1→4)-O-α-D-glucopyranosyl-(1→1)-(2S,3S,4R)-2-amino-N-hexacosanoyl-1,3,4-octadecanetriol]	14.8 ± 1.3 days	116%	intensive anti-tumor effects almost in the same level as that of Compound b	223%	148%	431%	874%	803%	538%	165%	133%
CCCCCCCCCCCCCCCCCCCCCC[C@@H](O)C(=O)N[C@@H](CO[C@H]1O[C@H](CO)[C@H](O)[C@H](O[C@@H]2O[C@@H]([C@H](O)CO)[C@H](O)[C@H]2O)[C@H]1O)[C@H](O)[C@H](O)CCCCCCCCCCCCCC [Compound 16, O-β-D-galactofuranosyl-(1→3)-O-α-D-galactopyranosyl-(1→1)-(2S,3S,4R)-2-amino-N-[(R)-2-hydroxytetracosanoyl]-1,3,4-octadecanetriol]	14.8 ± 0.8 days	116%		325%	296%	740%			702%	274%	262%
CCCCCCCCCCCCCCCCCCCCCC[C@@H](O)C(=O)N[C@@H](CO[C@H]1O[C@H](CO)[C@H](O)[C@H](O[C@@H]2O[C@@H]([C@H](O)CO)[C@H](O)[C@H]2O)[C@H]1O)[C@H](O)[C@H](O)CCCCCCCCCCC(C)C [Compound 13, O-β-D-galactofuranosyl-(1→3)-O-α-D-galactopyranosyl-(1→1)-(2S,3S,4R)-2-amino-N-[(R)-2-hydroxytetracosanoyl]-15-methyl-1,3,4-hexadecanetriol]	14.6 ± 0.5 days	114%		546%	395%	788%			227%	276%	248%
CCCCCCCCCCCCCCCCCCCCC[C@@H](O)C(=O)N[C@@H](CO[C@H]1O[C@H](CO)[C@H](O)[C@H](O[C@@H]2O[C@@H]([C@H](O)CO)[C@H](O)[C@H]2O)[C@H]1O)[C@H](O)[C@H](O)CCCCCCCCCCCC [Compound 11, O-β-D-galactofuranosyl-(1→3)-O-α-D-galactopyranosyl-(1→1)-(2S,3S,4R)-2-amino-N-[(R)-2-hydroxytricosanoyl]-1,3,4-hexadecanetriol]	13.4 ± 0.5 days	105%		410%	281%	646%		858%	116%	225%	258%
CCCCCCCCCCCCCCCCCCCCCC[C@@H](O)C(=O)N[C@@H](CO[C@H]1O[C@H](CO)[C@H](O)[C@H](O[C@@H]2O[C@@H]([C@H](O)CO)[C@H](O)[C@H]2O)[C@H]1O)[C@H](O)[C@H](O)CCCCCCCCCCCC(C)C [Compound 15, O-β-D-galactofuranosyl-(1→3)-O-α-D-galactopyranosyl-(1→1)-(2S,3S,4R)-2-amino-N-[(R)-2-hydroxytetracosanoyl]-16-methyl-1,3,4-heptadecanetriol]	14.0 ± 0 days	109%		501%	291%	845%			394%	295%	253%
CCCCCCCCCCCCCCCCCCCCCC[C@@H](O)C(=O)N[C@@H](CO[C@H]1O[C@H](CO)[C@H](O)[C@H](O[C@@H]2O[C@@H]([C@H](O)CO)[C@H](O)[C@H]2O)[C@H]1O)[C@H](O)[C@H](O)CCCCCCCCCCCC [Compound 12, O-β-D-galactofuranosyl-(1→3)-O-α-D-galactopyranosyl-(1→1)-(2S,3S,4R)-2-amino-N-[(R)-2-hydroxytetracosanoyl]-1,3,4-hexadecanetriol]	13.8 ± 0.8 days	108%		381%	378%	509%	982%	772%	113%	203%	187%
CCCCCCCCCCCCCCCCCCCC[C@@H](O)C(=O)N[C@@H](CO[C@H]1O[C@H](CO)[C@H](O)[C@H](O[C@@H]2O[C@@H]([C@H](O)CO)[C@H](O)[C@H]2O)[C@H]1O)[C@H](O)[C@H](O)CCCCCCCCCCCC [Compound 10, O-β-D-galactofuranosyl-(1→3)-O-α-D-galactopyranosyl-(1→1)-(2S,3S,4R)-2-amino-N-[(R)-2-hydroxydocosanoyl]-1,3,4-hexadecanetriol]	13.8 ± 0.4 days	108%		286%	147%	509%	375%	277%	102%	174%	132%
CCCCCCCCCCCCCCCCCCCCCC[C@@H](O)C(=O)N[C@@H](CO[C@H]1O[C@H](CO)[C@H](O)[C@H](O[C@@H]2O[C@@H]([C@H](O)CO)[C@H](O)[C@H]2O)[C@H]1O)[C@H](O)[C@H](O)CCCCCCCCCCCCC [Compound 14, O-β-D-galactofuranosyl-(1→3)-O-α-D-galactopyranosyl-(1→1)-(2S,3S,4R)-2-amino-N-[(R)-2-hydroxytetracosanoyl]-1,3,4-heptadecanetriol]	13.8 ± 0.4 days	108%		838%	659%	640%			252%	261%	232%
